From patent US20050112573A1, “Method of detecting toxic substance” (priority 2001, published 2005)

Tested on: yeast genes (level of expressed mRNA)
Test: DNA chip analysis of expressed mRNA of yeast genes after 2 h culture with a toxic chemical substance
Type: cell-based, Saccharomyces cerevisiae S288C
Conditions: for The level of expressed mRNA in the presence of chemical substance/ (ratio to absence of chemical substance): stress protein genes, DNA chip
Description: Yeast (Saccharomyces cerevtisiae S288C (α SUC2mal mel gap2 CUP1)) were cultured at 25° C. on YPD medium (yeast extract 1%, polypepton 2%, glucose 2%). One of toxic chemical substances was added to the cell at logarithmic growth phase, and the cell was further cultured for two hours. Cell was cultured without any chemical substance in the same condition, and was used as control. Concentrations of the chemical substances were defined to inhibit the growth of the yeast but not lead to death.
After the completion of cultivation, the culture was centrifuged to collect the cells. To the cells, sodium acetate buffer (50 mM sodium acetate, 10 mM EDTA, 1% SDS) was added, and the mixture was shaken at 65° C. for five minutes, followed by returning to room temperature, and obtaining the supernatant, which procedure was repeated two times. To the supernatant, ½ amount of a solution of phenol/chloroform was added, and the mixture was centrifuged to give a supernatant, which was added with an equal amount of chloroform, and the mixture was centrifuged to give a supernatant. To the supernatant, an equal amount of isopropanol containing 0.3 M sodium acetate was added, and the mixture was allowed to stand at room temperature for 30 minutes, after which the mixture was centrifuged to give a sediment of the whole RNAs. Seventy % ethanol was added to the sediment, and the mixture was again centrifuged to give a sediment, which was then dried and dissolved in water. mRNA was isolated from the whole RNAs as followings. In view of the fact that a poly A chain is attached to the 3′ terminus of mRNA, a polynucleotide having a poly T structure which was immobilized on the surface of latex beads was used to trap the mRNA, and then the mRNA was washed and eluted with spine column (Oligotex-dT30<Super>mRNA Purification Kit, Takara). Reverse transcription of the mRNA was conducted with a reverse transcriptase (Super Script II Reverse Transcriptase; catalogue No. 18064-014, GibcoBRL) using fluorescence-labeled nucleotides to give cDNAs that were introduced with Cy3-dUTP or Cy5-dUTP during the reverse transcription.
The labeled cDNAs were dissolved in TE buffer (10 mM Tris-HCl/1 mM EDTA, pH8.0), and the solution was dropped on the DNA chip containing the whole genes of yeast (DNA Chip Research Inc. Japan) so that the cDNAs were hybridized on the DNA chip at 65° C. for over 12 hours. The fluoresces intensity of the DNA chip was read with a scanner, and the ratio relative to the fluorescence intensity resulting from the absence of chemical substance was estimated as the following, which is shown in Tables 1 to 9: [formula]
In the Tables, “Intensity” indicated in the rightmost column is a value of the level of expressed mRNA of each gene in control cells as divided by the average level of the expressions of the whole genes.

## CCCCCCCCCCCCOS(=O)(=O)[O-].[Na+] [(18), sodium lauryl sulfate]
Gene YOR267C
  The level of expressed mRNA in the presence of chemical substance/absence: YOR267C: 1.0
Gene YOR325W
  The level of expressed mRNA in the presence of chemical substance/absence: YOR325W: 1.0
Gene YOR336W
  level of expressed mRNA in the presence of chemical substance/in its absence: 1.0
Gene YOR344C
  level of expressed mRNA in the presence of chemical substance/in its absence: 1.3
Gene YOR347C
  level of expressed mRNA in the presence of chemical substance/in its absence: 1.3
Gene YPL005W
  The level of expressed mRNA in the presence of chemical substance/absence: YPL005W: 1.1
Gene YPL017C
  level of expressed mRNA in the presence of chemical substance/in its absence: 0.8
Gene YPL107W, DNA chip fluorescence ratio to control without chemical, 2 hours culture with chemical, growth-inhibiting non-lethal concentration
  The level of expressed mRNA in the presence of chemical substance / the level in the absence of chemical substance, yeast gene YPL107W: 1.1
Gene YPL138C, DNA chip fluorescence ratio to control without chemical, 2 hours culture with chemical, growth-inhibiting non-lethal concentration
  The level of expressed mRNA in the presence of chemical substance / the level in the absence of chemical substance, yeast gene YPL138C: 1.1
Gene YPL150W
  The level of expressed mRNA in the presence of chemical substance/absence: YPL150W: 1.1
Gene YPL151C
  The level of expressed mRNA in the presence of chemical substance/absence: YPL151C: 1.0
Gene YPL152W
  The level of expressed mRNA in the presence of chemical substance/absence: YPL152W: 1.9
Gene YPL168W
  The level of expressed mRNA in the presence of chemical substance/absence: YPL168W: 1.2
Gene YPL180W
  The level of expressed mRNA in the presence of chemical substance/absence: YPL180W: 0.9
Gene YPL188W
  The level of expressed mRNA in the presence of chemical substance/absence: YPL188W: 0.9
Gene YPL221W
  The level of expressed mRNA in the presence of chemical substance/absence: YPL221W: 1.2
Gene YPL225W
  The level of expressed mRNA in the presence of chemical substance/absence: YPL225W: 1.7
Gene YPL249C
  The level of expressed mRNA in the presence of chemical substance/absence: YPL249C: 1.2
Gene YPL260W
  The level of expressed mRNA in the presence of chemical substance/absence: YPL260W: 1.3
Gene YPL265W
  level of expressed mRNA in the presence of chemical substance/in its absence: 0.4
Gene YPR006C
  level of expressed mRNA in the presence of chemical substance/in its absence: 2.1
Gene YPR026W
  level of expressed mRNA in the presence of chemical substance/in its absence: 1.3
Gene YPR049C
  The level of expressed mRNA in the presence of chemical substance/absence: YPR049C: 1.1
Gene YPR061C
  The level of expressed mRNA in the presence of chemical substance/absence: YPR061C: 0.9
Gene YPR093C
  The level of expressed mRNA in the presence of chemical substance/absence: YPR093C: 1.1
Gene YPR146C
  The level of expressed mRNA in the presence of chemical substance/absence: YPR146C: 1.1
Gene YPR148C
  The level of expressed mRNA in the presence of chemical substance/absence: YPR148C: 2.0
Gene YPR150W
  The level of expressed mRNA in the presence of chemical substance/absence: YPR150W: 1.0
Gene YPR158W
  The level of expressed mRNA in the presence of chemical substance/absence: YPR158W: 0.7
Gene YPR169W
  The level of expressed mRNA in the presence of chemical substance/absence: YPR169W: 1.1
Gene YPR172W
  The level of expressed mRNA in the presence of chemical substance/absence: YPR172W: 1.4
Gene YPR174C
  The level of expressed mRNA in the presence of chemical substance/absence: YPR174C: 0.9
Yeast gene YAR010C
  The level of expressed mRNA in the presence of chemical substance/The level of expressed mRNA in the absence of chemical substance: 1.0
Yeast gene YBL005W-A
  The level of expressed mRNA in the presence of chemical substance/The level of expressed mRNA in the absence of chemical substance: 1.0
Yeast gene YBL038W, mitochondria-located protein genes, 2 h culture with chemical
  The level of expressed mRNA in the presence of chemical substance/ (ratio to absence), gene YBL038W: 1.9
Yeast gene YBL041W
  The level of expressed mRNA in the presence of chemical substance/The level of expressed mRNA in the absence of chemical substance: 2.0
Yeast gene YBL043W
  The level of expressed mRNA in the presence of chemical substance/The level of expressed mRNA in the absence of chemical substance: 1.8
Yeast gene YBL078C
  The level of expressed mRNA in the presence of chemical substance/The level of expressed mRNA in the absence of chemical substance: 2.8
Yeast gene YBL093C
  The level of expressed mRNA in the presence of chemical substance/ (ratio to absence of chemical substance): 1.3
Yeast gene YBR036C, ratio of DNA chip fluorescence intensity to that without chemical substance
  The level of expressed mRNA in the presence of chemical substance/ (in its absence), gene YBR036C: 1.8
Yeast gene YBR044C
  The level of expressed mRNA in the presence of chemical substance/ (ratio to absence of chemical substance): 1.3
Yeast gene YBR122C, mitochondria-located protein genes, 2 h culture with chemical
  The level of expressed mRNA in the presence of chemical substance/ (ratio to absence), gene YBR122C: 1.5
Yeast gene YBR214W
  The level of expressed mRNA in the presence of chemical substance/The level of expressed mRNA in the absence of chemical substance: 1.2
Yeast gene YBR251W, mitochondria-located protein genes, 2 h culture with chemical
  The level of expressed mRNA in the presence of chemical substance/ (ratio to absence), gene YBR251W: 1.4
Yeast gene YBR298C, ratio of DNA chip fluorescence intensity to that without chemical substance
  The level of expressed mRNA in the presence of chemical substance/ (in its absence), gene YBR298C: 0.8
Yeast gene YCL020W
  The level of expressed mRNA in the presence of chemical substance/The level of expressed mRNA in the absence of chemical substance: 1.3
Yeast gene YCL027W
  The level of expressed mRNA in the presence of chemical substance/The level of expressed mRNA in the absence of chemical substance: 0.8
Yeast gene YCR004C
  The level of expressed mRNA in the presence of chemical substance/The level of expressed mRNA in the absence of chemical substance: 3.5
Yeast gene YCR046C, mitochondria-located protein genes, 2 h culture with chemical
  The level of expressed mRNA in the presence of chemical substance/ (ratio to absence), gene YCR046C: 1.0
Yeast gene YCR071C
  The level of expressed mRNA in the presence of chemical substance/The level of expressed mRNA in the absence of chemical substance: 1.3
Yeast gene YCR083W, mitochondria-located protein genes, 2 h culture with chemical
  The level of expressed mRNA in the presence of chemical substance/ (ratio to absence), gene YCR083W: 1.3
Yeast gene YCR083W
  The level of expressed mRNA in the presence of chemical substance/ (ratio to absence of chemical substance): 1.3
Yeast gene YCR088W
  The level of expressed mRNA in the presence of chemical substance/The level of expressed mRNA in the absence of chemical substance: 0.9
Yeast gene YDL008W
  The level of expressed mRNA in the presence of chemical substance/The level of expressed mRNA in the absence of chemical substance: 1.6
Yeast gene YDL067C, energy system protein genes, 2 h culture with the chemical, ratio to control without chemical
  The level of expressed mRNA in the presence of chemical substance/ in its absence, gene YDL067C: 1.7
Yeast gene YDL067C, mitochondria-located protein genes, 2 h culture with chemical
  The level of expressed mRNA in the presence of chemical substance/ (ratio to absence), gene YDL067C: 1.7
Yeast gene YDL078C, energy system protein genes, 2 h culture with the chemical, ratio to control without chemical
  The level of expressed mRNA in the presence of chemical substance/ in its absence, gene YDL078C: 2.0
